{
  "source": "paper PMC10451034",
  "about": "“Highly Efficient Photosensitizers with Molecular Vibrational Torsion for Cancer Photodynamic Therapy” (ACS Central Science, 2023)",
  "key": {"[1]": {"assay": "Oil-water partition coefficient (Log P)", "type": "physicochemical", "protocol": "In order to guarantee the preciseness of the supposition, electrostatic potential (ESP) analysis of the molecular surface was conducted to quantify the surface charge distribution.[48] With a unit positive charge, the surface potential of the molecule was mostly positive. As depicted in Figure 7a, most of the positive electrostatic potential regions on the surface of the molecules were located on the benzothiazole groups in all four compounds, while only a small amount of positive electrostatic potential and negative electrostatic potential are distributed on the benzoquinone group and the oxygen atom, respectively. […] On the contrary, QTCy7-Ph preferred a larger effective surface area at the low surface positive potential region (<55 kcal/mol). In addition, the areas of surface electrostatic potential in QTCy7-Me and QTCy7-Ac were maintained in a median (QTCy7-Ac was partly larger than QTCy7-Me) (Figure 7b). The oil–water partition coefficient (Log P) was also taken into account to study cell uptake. According to Log P (Figure 7c), the introduction of phenyl enhanced the lipophilicity of QTCy7-Ph, resulting a good membrane permeability, whereas the introduction of formyl enhanced the hydrophilicity of QTCy7-CHO, which decreased its cellular uptake capacity. […] This explains why only a small amount of QTCy7-CHO adhered on the membrane surface (Figure 7c)."}, "HepG2 cells": {"test_system": "HepG2 cells", "assay": "Confocal imaging of cellular uptake, subcellular localization and membrane damage", "type": "cell-based, human", "conditions": "for cell membrane damage on illumination: CLSM, illumination 0-4 min; for cellular distribution / Pearson correlation (colocalization) coefficient with MitoTracker Green: HepG2 cells; for cellular distribution: incubated 90 min; for photostability in cells: fluorescence intensity in cells during light irradiation; for Pearson correlation (colocalization) coefficient with MitoTracker Green: mitochondria", "protocol": "In view of QTCy7-R having strong singlet oxygen generation potency and reasonable wavelength, human hepatocellular carcinoma cells were selected for photoactivity experiments in vitro. On account of their low molecular weights and intrinsic positive cationic charge, QTCy7-R could be quickly taken up by cells within 90 min (Figure S19a,b). […] According to our supposition, the enhanced partial cationic charge caused by the introduction of the EWG in QTCy7-Ac or QTCy7-CHO made it easier for them to cling to the cell membrane with negative charge than to cross it.\nNext, in order to verify the disruption effect on cell structural integrity of the ^1O2 generation by QTCy7-R under irradiation, JC-1 staining imaging was conducted to monitor the mitochondria membrane potential. […] On the other hand, cell membrane damage caused by the photooxidation of QTCy7-Ac and QTCy7-CHO could be confirmed by a visualized observation. […] Furthermore, the lactate dehydrogenase (LDH) content in cell culture medium was measured to characterize the extent of cell membrane damage.[49] […]\nmedium (DMEM, Invitrogen) with 10 % fetal bovine serum (Invitrogen) and 1% penicillinstreptomycin. All cells were treated at 37 °C with the humidified atmosphere containing 5% CO2 and 95% air. Before conducting cell imaging experiments, all types of cells were maintained on 35 mm glass-bottom cell dishes for 24 h.\nConfocal fluorescence imaging\nAfter culturing the cells in 35 mm glass-bottom cell dishes for 24 h, the DMEM medium was replaced with saline, then QTCy7-R was added (3 μM). The confocal fluorescence imaging was carried out and images were recorded. (λex = 640 nm, λem = 680-780 nm). In the suborganelle localization experiment s, the cells were incubated with 3 μM QTCy7-R for 90 min and then stained with LysoTracker Green DND 26 (200 nM) and MitoTracker Green FM (200 nM), respectively. After fluorescence imaging, colocalization coefficient was analyzed and recorded. (LysoTracker Green DND 26 and MitoTracker Green FM: λex = 488 nm, λem = 500-550 nm). […]"}, "[2]": {"assay": "Triplet lifetime by laser flash photolysis", "type": "physicochemical", "conditions": "5 μM in deaerated dichloromethane, λex = 610 nm", "source_text": "To probe the mechanism of the observed phenomenon and further validate our hypothesis, ultrafast excited-state dynamic behaviors were implemented by using femtosecond transient absorption spectroscopy (fs-TA) (Figures 3a and S4a–c). In order to obtain the complete process of excited states, a 350 nm laser was chosen as a pump to populate the high singlet excited states (Sn) from the ground state (S0). […] With the growth of delay time, the ESA of S1 gradually decayed (τ = 7.65 ps); meanwhile, beyond our expectation, accompanied by a particularly noticeable peak at ca. 583 nm increasing promptly, this new emerging ESA peak reached its maximum within about 21.98 ps. Similar phenomena were found in the transient spectra of the other three compounds (Figures S4d–f). However, for the control TCy7, there was no obvious formation of another ESA peak in transient spectra (Figure S5). […] Furthermore, the rate of X state formation was calculated to be 4.54 × 10^10 s^–1 for QTCy7-Ac based on the rise time (kX = 1/τX,rise), which was close to the order of magnitude of the intramolecular distorted vibration behavior. […] Meanwhile, the triplet lifetime of this series of molecules was evaluated and inspected for further applications (Figures 3d and S4g–i). […]\nPhotoexcited singlet oxygen production was detected by employed 1,3-diphenylisobenzofuran (DPBF) as the indicator. The absorbance of DPBF at 415 nm was regulated to about 1.0 in DCM. And the samples were irradiated with 660 nm light for various times, then the absorption spectra of different time nodes were recorded.\nThe singlet oxygen quantum yield (ΦΔ) was calculated by the following equation:\nWhere “Φ” represent the singlet oxygen quantum yield , “sam” and “std” represent QTCy7-R and MB, respectively. “m” is the slope of the absorbance of DPBF at 415 nm with time, F=1–10-O.D. (O.D. is the absorbance of samples at 660 nm). […]\nThe triplet life of QTCy7-R was measured by LP980 laser flash photolysis spectrometer (Edinburgh Instruments Ltd.) in combination with a Nd:YAG laser (Surelite I-10, Continuum Electro-Optics, Inc.). […]"}},
  "data": [
    {"smiles": "CCN1/C(=C/C=C2\\C=C(C=O)C=C(/C=C/c3sc4ccccc4[n+]3CC)C2=O)Sc2ccccc21", "note": "[QTCy7-CHO]", "values": [
      {"measurement": "logP", "setting": "[1]", "value": 1.17},
      {"measurement": "cell membrane damage on illumination", "setting": "HepG2 cells", "value": "did not cause severe cell membrane rupture"},
      {"measurement": "cellular distribution", "setting": "HepG2 cells", "value": "effectively adhere to the cell membrane"},
      {"measurement": "photostability in cells", "setting": "HepG2 cells", "value": "good photostability"},
      {"measurement": "triplet lifetime", "setting": "[2]", "value": "about 2 μs"}
    ]},
    {"smiles": "CCN1/C(=C/C=C2\\C=C(c3ccccc3)C=C(/C=C/c3sc4ccccc4[n+]3CC)C2=O)Sc2ccccc21", "note": "[QTCy7-Ph]", "values": [
      {"measurement": "logP", "setting": "[1]", "value": 1.69},
      {"measurement": "cellular distribution", "setting": "HepG2 cells", "value": "could get inside cells"},
      {"measurement": "Pearson correlation (colocalization) coefficient with MitoTracker Green", "setting": "HepG2 cells", "value": 0.89},
      {"measurement": "triplet lifetime", "setting": "[2]", "value": "about 12 μs"}
    ]},
    {"smiles": "CCOC(=O)C1=C/C(=C\\C=C2/Sc3ccccc3N2CC)C(=O)C(/C=C/c2sc3ccccc3[n+]2CC)=C1", "note": "[QTCy7-Ac]", "values": [
      {"measurement": "logP", "setting": "[1]", "value": 1.41},
      {"measurement": "cell membrane damage on illumination", "setting": "HepG2 cells", "value": "formation of distinct bubblelike structures"},
      {"measurement": "cellular distribution", "setting": "HepG2 cells", "value": "effectively adhere to the cell membrane"},
      {"measurement": "photostability in cells", "setting": "HepG2 cells", "value": "good photostability"}
    ]},
    {"smiles": "CCN1/C(=C/C=C2\\C=C(C)C=C(/C=C/c3sc4ccccc4[n+]3CC)C2=O)Sc2ccccc21", "note": "[QTCy7-Me]", "values": [
      {"measurement": "logP", "setting": "[1]", "value": 1.43},
      {"measurement": "cellular distribution", "setting": "HepG2 cells", "value": "could get inside cells"},
      {"measurement": "Pearson correlation (colocalization) coefficient with MitoTracker Green", "setting": "HepG2 cells", "value": 0.92},
      {"measurement": "triplet lifetime", "setting": "[2]", "value": "about 12 μs"}
    ]}
  ]
}
